Assay results from ChEMBL document CHEMBL1158420, “Synthesis, spectral, crystal and antimicrobial studies of biologically potent oxime ethers of nitrogen, oxygen and sulfur heterocycles” (2009).
Converted amounts (≈) assume the structure as drawn.

What was measured:
Candida albicans = assay: Antifungal activity against Candida albicans by twofold dilution method; format: functional
[1] = tested on: Salmonella enterica subsp. enterica; assay: Antibacterial activity against Salmonella typhi by twofold dilution method; format: functional, Salmonella enterica subsp. enterica serovar Typhi; conditions: Salmonella enterica; read-out: MIC
Candida = assay: Antifungal activity against Candida 51 by twofold dilution method; format: functional
Rhizopus = assay: Antifungal activity against Rhizopus sp. by twofold dilution method; format: functional
Aspergillus niger = assay: Antifungal activity against Aspergillus niger by twofold dilution method; format: functional
Escherichia coli = assay: Antibacterial activity against Escherichia coli by twofold dilution method; format: functional
Aspergillus flavus = assay: Antifungal activity against Aspergillus flavus by twofold dilution method; format: functional
Pseudomonas aeruginosa = assay: Antibacterial activity against Pseudomonas aeruginosa by twofold dilution method; format: functional
Staphylococcus aureus = assay: Antibacterial activity against Staphylococcus aureus by twofold dilution method; format: functional
Cryptococcus neoformans = assay: Antifungal activity against Cryptococcus neoformans by twofold dilution method; format: functional
[2] = Candida albicans, read-out: MIC
[3] = Aspergillus niger, read-out: MIC
[4] = Escherichia coli, read-out: MIC
[5] = Aspergillus flavus, read-out: MIC
[6] = Pseudomonas aeruginosa, read-out: MIC
[7] = Staphylococcus aureus, read-out: MIC
[8] = Cryptococcus neoformans, read-out: MIC

SMILES	MIC (Candida albicans; [2]) [mg/L]	MIC [1] [mg/L]	MIC (Candida; Candida, 51, read-out: MIC) [mg/L]	MIC (Rhizopus; Rhizopus, read-out: MIC) [mg/L]	MIC (Aspergillus niger; [3]) [mg/L]	MIC (Escherichia coli; [4]) [mg/L]	MIC (Aspergillus flavus; [5]) [mg/L]	MIC (Pseudomonas aeruginosa; [6]) [mg/L]	MIC (Staphylococcus aureus; [7]) [mg/L]	MIC (Cryptococcus neoformans; [8]) [mg/L]	MIC (Candida albicans) [mg/L]	MIC (Candida) [mg/L]	MIC (Rhizopus) [mg/L]	MIC (Aspergillus niger) [mg/L]	MIC (Escherichia coli) [mg/L]	MIC (Aspergillus flavus) [mg/L]	MIC (Pseudomonas aeruginosa) [mg/L]	MIC (Staphylococcus aureus) [mg/L]	MIC (Cryptococcus neoformans) [mg/L]
Cc1ccc(C2C/C(=N\OCc3ccccc3)C(C)C(c3ccc(C)cc3)N2)cc1 (configuration not stated)	50 (≈ 125 µM)	100 (≈ 251 µM)	50 (≈ 125 µM)	25 (≈ 62.7 µM)	100 (≈ 251 µM)	100 (≈ 251 µM)	100 (≈ 251 µM)	50 (≈ 125 µM)	50 (≈ 125 µM)	100 (≈ 251 µM)	–	–	–	–	–	–	–	–	–
COc1ccc(C2CC(=NOCc3ccccc3)CC(c3ccc(OC)cc3)N2)cc1 (configuration not stated)	100 (≈ 240 µM)	50 (≈ 120 µM)	50 (≈ 120 µM)	50 (≈ 120 µM)	100 (≈ 240 µM)	100 (≈ 240 µM)	100 (≈ 240 µM)	50 (≈ 120 µM)	50 (≈ 120 µM)	100 (≈ 240 µM)	–	–	–	–	–	–	–	–	–
Cc1ccc([C@@H]2CC(=NOCc3ccccc3)C[C@@H](c3ccc(C)cc3)S2)cc1 (relative stereo)	50 (≈ 125 µM)	100 (≈ 249 µM)	200 (≈ 498 µM)	50 (≈ 125 µM)	100 (≈ 249 µM)	50 (≈ 125 µM)	100 (≈ 249 µM)	100 (≈ 249 µM)	100 (≈ 249 µM)	50 (≈ 125 µM)	–	–	–	–	–	–	–	–	–
c1ccc(CON=C2C[C@@H](c3ccccc3)S[C@H](c3ccccc3)C2)cc1 (relative stereo)	200 (≈ 535 µM)	200 (≈ 535 µM)	> 200	> 200	200 (≈ 535 µM)	200 (≈ 535 µM)	100 (≈ 268 µM)	> 200	> 200	200 (≈ 535 µM)	–	–	–	–	–	–	–	–	–
Cc1ccc(C2CC(=NOCc3ccccc3)CC(c3ccc(C)cc3)N2)cc1 (configuration not stated)	200 (≈ 520 µM)	100 (≈ 260 µM)	100 (≈ 260 µM)	100 (≈ 260 µM)	200 (≈ 520 µM)	200 (≈ 520 µM)	100 (≈ 260 µM)	50 (≈ 130 µM)	200 (≈ 520 µM)	200 (≈ 520 µM)	–	–	–	–	–	–	–	–	–
COc1ccc(C2OC(c3ccc(OC)cc3)C(C)C(=NOCc3ccccc3)C2C)cc1 (configuration not stated)	50 (≈ 112 µM)	50 (≈ 112 µM)	12.5 (≈ 28.1 µM)	25 (≈ 56.1 µM)	50 (≈ 112 µM)	25 (≈ 56.1 µM)	100 (≈ 224 µM)	25 (≈ 56.1 µM)	50 (≈ 112 µM)	6.25 (≈ 14 µM)	–	–	–	–	–	–	–	–	–
CC1/C(=N/OCc2ccccc2)CC(c2ccc(Cl)cc2)NC1c1ccc(Cl)cc1 (configuration not stated)	25 (≈ 56.9 µM)	50 (≈ 114 µM)	50 (≈ 114 µM)	100 (≈ 228 µM)	50 (≈ 114 µM)	50 (≈ 114 µM)	50 (≈ 114 µM)	25 (≈ 56.9 µM)	50 (≈ 114 µM)	50 (≈ 114 µM)	–	–	–	–	–	–	–	–	–
Cc1ccc(C2OC(c3ccc(C)cc3)C(C)C(=NOCc3ccccc3)C2C)cc1 (stereo in doubt; 7d2)	–	–	–	–	–	–	–	–	–	–	6.25 (≈ 15.1 µM)	6.25 (≈ 15.1 µM)	25 (≈ 60.5 µM)	50 (≈ 121 µM)	50 (≈ 121 µM)	25 (≈ 60.5 µM)	25 (≈ 60.5 µM)	25 (≈ 60.5 µM)	25 (≈ 60.5 µM)
CC1C(=NOCc2ccccc2)C(C)C(c2ccc(Cl)cc2)OC1c1ccc(Cl)cc1 (stereo in doubt; 7c1)	–	50 (≈ 110 µM)	50 (≈ 110 µM)	50 (≈ 110 µM)	100 (≈ 220 µM)	50 (≈ 110 µM)	50 (≈ 110 µM)	25 (≈ 55 µM)	50 (≈ 110 µM)	25 (≈ 55 µM)	50 (≈ 110 µM)	–	–	–	–	–	–	–	–
Clc1ccc(C2CC(=NOCc3ccccc3)CC(c3ccc(Cl)cc3)N2)cc1 (configuration not stated)	50 (≈ 118 µM)	100 (≈ 235 µM)	200 (≈ 470 µM)	> 200	50 (≈ 118 µM)	50 (≈ 118 µM)	200 (≈ 470 µM)	50 (≈ 118 µM)	50 (≈ 118 µM)	100 (≈ 235 µM)	–	–	–	–	–	–	–	–	–
CC(C)C1/C(=N/OCc2ccccc2)CC(c2ccccc2)NC1c1ccccc1 (configuration not stated)	50 (≈ 125 µM)	100 (≈ 251 µM)	200 (≈ 502 µM)	50 (≈ 125 µM)	200 (≈ 502 µM)	100 (≈ 251 µM)	200 (≈ 502 µM)	200 (≈ 502 µM)	> 200	100 (≈ 251 µM)	–	–	–	–	–	–	–	–	–
COc1ccc(C2C/C(=N\OCc3ccccc3)C(C)C(c3ccc(OC)cc3)N2)cc1 (configuration not stated)	25 (≈ 58.1 µM)	25 (≈ 58.1 µM)	12.5 (≈ 29 µM)	25 (≈ 58.1 µM)	50 (≈ 116 µM)	50 (≈ 116 µM)	50 (≈ 116 µM)	50 (≈ 116 µM)	25 (≈ 58.1 µM)	25 (≈ 58.1 µM)	–	–	–	–	–	–	–	–	–
CC1/C(=N/OCc2ccccc2)CC(c2ccccc2)NC1c1ccccc1 (configuration not stated)	100 (≈ 270 µM)	100 (≈ 270 µM)	200 (≈ 540 µM)	200 (≈ 540 µM)	200 (≈ 540 µM)	200 (≈ 540 µM)	100 (≈ 270 µM)	200 (≈ 540 µM)	200 (≈ 540 µM)	> 200	–	–	–	–	–	–	–	–	–
CC1/C(=N\OCc2ccccc2)CC(c2ccccc2)OC1c1ccccc1 (configuration not stated)	100 (≈ 269 µM)	200 (≈ 538 µM)	100 (≈ 269 µM)	200 (≈ 538 µM)	200 (≈ 538 µM)	100 (≈ 269 µM)	200 (≈ 538 µM)	100 (≈ 269 µM)	100 (≈ 269 µM)	100 (≈ 269 µM)	–	–	–	–	–	–	–	–	–
O=C(O)c1cn(C2CC2)c2cc(N3CCNCC3)c(F)cc2c1=O [CIPROFLOXACIN]	–	50 (≈ 151 µM)	–	–	–	25 (≈ 75.4 µM)	–	–	–	–	–	–	–	–	–	–	–	–	–
C[C@@H]1[C@H](O)[C@@H](C)/C=C/C=C/C=C/C=C/C=C/C=C/C=C/[C@H](O[C@@H]2O[C@H](C)[C@@H](O)[C@H](N)[C@@H]2O)C[C@@H]2O[C@](O)(C[C@@H](O)C[C@@H](O)[C@H](O)CC[C@@H](O)C[C@@H](O)CC(=O)O[C@H]1C)C[C@H](O)[C@H]2C(=O)O [AMPHOTERICIN B]	25 (≈ 27.1 µM)	–	25 (≈ 27.1 µM)	25 (≈ 27.1 µM)	50 (≈ 54.1 µM)	–	50 (≈ 54.1 µM)	–	–	25 (≈ 27.1 µM)	–	–	–	–	–	–	–	–	–
